Laboratory results reported in patent US12285403B2, “A2-73 as a therapeutic for insomnia, anxiety and agitation” (Anavex Life Sciences Corp., priority 2016, dated 2025).

Assays:
[1] = system: mild-to-moderate Alzheimer's disease patients; assay: EEG/ERP (P300) target detection task, Phase 2a study; assay type: in vivo, human; conditions: for False Alarms / P300 Amplitude / Task Accuracy / Reaction Time: mean ± SEM; for False Alarms: baseline 3.4 ± 1.0, healthy control 1.1 ± 0.2; for P300 Amplitude: baseline 5.99 ± 0.58, healthy control 7.36 ± 0.39; for Task Accuracy: baseline 83.8 ± 3.8, healthy control 94.1 ± 1.1; for Reaction Time: baseline 559.0 ± 24.0, healthy control 458.6 ± 11.4
Method: An event-related potential (ERP) is the measured brain response that is the direct result of a specific sensory, cognitive, or motor event. More formally, it is any stereotyped electrophysiological response to a stimulus. The study of the brain in this way provides a noninvasive means of evaluating brain functioning. ERPs are measured by means of electroencephalography (EEG). Particular efficacy data measurements addressed cognition and function. Cognitive measures include MMSE and Cogstate battery. Functional measures were ADCS-ADL. Supportive Biomarker Measurements include ERP (P300): fundamental measures of synaptic network performance and target engagement. ERP target detection task measures is a direct measure of attention, speed of brain processing, and simple functional performance. 2-73 Rescues Cognitive Effects on a Cellular Level on the subjects of the Phase 2a study. […] 2-73 effect on synaptic networks and effect on cognition and behavior at daily doses of 10 mg-50 mg is shown. ERP peak measures (P300) are shown. The P300 (P3) wave is an event related potential (ERP) component elicited in the process of decision making. It is considered to be an endogenous potential, as its occurrence links not to the physical attributes of a stimulus, but to a person's reaction to it. More specifically, the P300 is thought to reflect processes involved in stimulus evaluation or categorization. ERP target detection task is a direct measure of attention, speed of brain. processing, and simple behavioral performance. Psychometric measures (Cogstate) cognitive measures: Detection: processing speed (psychomotor function), Identification: reaction time (attention), One Back: working memory (cognition), One Card Learning: visual learning (visual memory), ISLT: verbal learning, ISLT-delay: verbal memory. Psychometric measures (MMSE): cognitive measures. Behavioral measures (ADCS-ADL): behavioral measures.

[2] = Systolic blood pressure monitored over the first 25 days of dosing in AD subjects; assay type: in vivo, human
Method: An additional benefit of the therapeutic regimen disclosed herein is the beneficial control of systolic blood pressure in AD subjects taking daily oral dosages of A2-73 of from about 10 mg to about 50 mg. Systolic blood pressure was monitored over the first 25 days of dosing. A1-41 and A19-144 are similarly useful therapeutics.

For `CN(C)CC1CCOC1(c1ccccc1)c1ccccc1.Cl` (stereo not shown) [A2-73, tetrahydro-N,N-dimethyl-2,2-diphenyl-3-furanmethanamine hydrochloride], the “False Alarms” value ([1]; 5 Week) was 1.0 ± 0.5%, the “P300 Amplitude” value ([1]; 5 Week, daily 10 mg-50 mg) was 7.09 ± 0.72 μV and the “Task Accuracy” value ([1]; 5 Week) was 92.6 ± 2.4%. The “Reaction Time” value ([1]; 5 Week) was 492.6 ± 23.8 ms, the “All tested areas (ERP, Cogstate, MMSE, ADCS-ADL) vs starting baseline” value ([1]; 5 weeks, daily 10 mg-50 mg, FIG. 9) was “improvement” and the “False Alarms” value ([1]; 17 Week) was 1.2 ± 0.9%. For the same compound, the “P300 Amplitude” value ([1]; 17 Week) was 6.38 ± 0.61 μV, the “Task Accuracy” value ([1]; 17 Week) was 92.2 ± 3.9% and the “Reaction Time” value ([1]; 17 Week) was 498.8 ± 24.8 ms. The “False Alarms” value ([1]; 31 Week) was 2.6 ± 1.2%, the “P300 Amplitude” value ([1]; 31 Week) was 5.93 ± 0.77 μV and the “Task Accuracy” value ([1]; 31 Week) was 88.1 ± 4.4%. The “Reaction Time” value ([1]; 31 Week) was 521.8 ± 28.1 ms, the “Change in mean systolic BP, baseline to Day 25” value (shortened to “Change in mean systolic BP”) ([2]; Hypertension Stage 1: 140-159 mm Hg) was −16 mm Hg and the “Day 25 Mean systolic BP ±SD” value ([2]; Hypertension Stage 1: 140-159 mm Hg, baseline 145 ± 3) was 129 ± 12 mm Hg. The “Change in mean systolic BP” value ([2]; Hypertension Stage 2: 160-179 mm Hg) was −22 mm Hg, the “Day 25 Mean systolic BP ±SD” value ([2]; Hypertension Stage 2: 160-179 mm Hg, baseline 170 ± 8) was 148 ± 19 mm Hg and the “Change in mean systolic BP” value ([2]; Hypertensive crisis >180 mm Hg) was −27 mm Hg. For the same compound, the “Day 25 Mean systolic BP ±SD” value ([2]; Hypertensive crisis >180 mm Hg, baseline 185 ± 0) was 159 ± 43 mm Hg, the “Change in mean systolic BP” value ([2]; Pre Hypertension 120-139 mm Hg) was −9 mm Hg and the “Day 25 Mean systolic BP ±SD” value ([2]; Pre Hypertension 120-139 mm Hg, baseline 131 ± 6) was 122 ± 15 mm Hg. For the same compound, the “Change in mean systolic BP” value ([2]; baseline classification <120 mm Hg) was 8 mm Hg, the “Day 25 Mean systolic BP ±SD” value ([2]; baseline classification <120 mm Hg, baseline 115 ± 2, oral daily 10-50 mg) was 123 ± 11 mm Hg and the “Systolic blood pressure in subjects with high-normal systolic blood pressure” value ([2]; first 25 days of dosing) was “rose”. For the same compound, the “Systolic blood pressure in hypertensive subjects” value ([2]; first 25 days of dosing, greater reduction for increasingly hypertensive subjects) was “significantly reduced”.
